Data on 29 molecules can be found in ChEMBL document CHEMBL4483862, “Open-source discovery of chemical leads for next-generation chemoprotective antimalarials” (2018).

The assay has as its system Plasmodium berghei. Briefly: Luciferase/luciferin-expressing antifolate-resistant parasites were used to infect a culture of HepG2 cells that were pre-incubated with compounds. Infected hepatocytes emit light due to the luciferase reaction. Assay results are presented as the percent inhibition of light emission compared to control. […]. It is filed as functional. The following applies: sporozoite; for IC90: read-out: LUCIFERASE INFECTION ASSAY - IC90.

As a reminder, the IC50 is the concentration that inhibits the measured activity by half. Usually IC90 stands for the concentration at which the effect reaches the 90% level.

As for `c1ccc(CNc2nccc3[nH]c(-c4ccccc4)nc23)cc1`, the IC90 was determined as 7.44 µM. Further, the half-maximal inhibitory concentration (IC50) (HEPG2TOX_HILL_SLOPE 2.3, HEPG2TOX_R_SQUARED 0.763, PBLUC_HILL_SLOPE 1.79, PBLUC_R_SQUARED 0.522, read-out: LUCIFERASE INFECTION ASSAY - IC50) amounted to 2.19 µM.

In the case of `CCN(CC)S(=O)(=O)c1cc(NC(=O)C2CCN(c3ncnc4sc(C)c(C)c34)CC2)ccc1Cl`, the IC90 came to 3.98 µM. Further, the IC50 (HEPG2TOX_HILL_SLOPE 2.3, HEPG2TOX_R_SQUARED 0.823, PBLUC_HILL_SLOPE 13, PBLUC_R_SQUARED 0.57, read-out: LUCIFERASE INFECTION ASSAY - IC50) amounted to 3.36 µM.

For `CC1(C)CC(N2CCN(C(c3ccccc3)c3ccccc3)CC2)=CC(=[N+]2CCCCC2)C1`, the IC90 amounted to 1.67 µM. Also, the IC50 (HEPG2TOX_HILL_SLOPE 2.29, HEPG2TOX_R_SQUARED 0.813, PBLUC_HILL_SLOPE 10.9, PBLUC_R_SQUARED 0.679, read-out: LUCIFERASE INFECTION ASSAY - IC50) came out at 1.36 µM.

Take `COc1cccc(CN2CCC2(C)C(=O)Nc2cccc(Oc3ccccc3)c2)c1F` (stereo not drawn): the IC90 is more than 7.85 µM. The IC50 (HEPG2TOX_HILL_SLOPE 2.25, HEPG2TOX_R_SQUARED 0.907, PBLUC_HILL_SLOPE 3.39, PBLUC_R_SQUARED 0.419, read-out: LUCIFERASE INFECTION ASSAY - IC50) is 5.73 µM.

Consider `COc1cc(Nc2ncc3c(n2)CCN(C(=O)Nc2ccc(C(C)C)cc2)C3)cc(OC)c1OC`, for which the IC90 worked out at 6.4 µM. Besides, the IC50 (HEPG2TOX_HILL_SLOPE 2.3, HEPG2TOX_R_SQUARED 0.688, PBLUC_HILL_SLOPE 0.8, PBLUC_R_SQUARED 0.723, read-out: LUCIFERASE INFECTION ASSAY - IC50) came out at 0.411 µM.

`CC(Sc1nc(Nc2ccccc2)c2ccccc2n1)C(=O)Nc1sccc1C#N` (stereo not drawn): the 90% effect concentration (IC90) was more than 10 µM. Also, for the setting “HEPG2TOX_HILL_SLOPE 2.3, HEPG2TOX_R_SQUARED 0.812, read-out: LUCIFERASE INFECTION ASSAY - IC50”, the half-inhibitory concentration (IC50) is more than 10 µM.

Consider `O=C1CC(c2ccc(Cl)cc2)Cc2c1cnn2-c1ccc(Cl)cc1` (stereo not drawn), for which the 90% effect concentration (IC90) is more than 9.24 µM. The IC50 (HEPG2TOX_HILL_SLOPE 2.3, HEPG2TOX_R_SQUARED 0.887, PBLUC_HILL_SLOPE 1.56, PBLUC_R_SQUARED 0.715, read-out: LUCIFERASE INFECTION ASSAY - IC50) was found to be 2.9 µM.

Turning to `COc1ccccc1C(=O)c1cnc(Nc2cccc(Oc3ccccc3)c2)[nH]1`, the concentration for an effect of 90% (IC90) worked out at 3.37 µM. In addition, the IC50 (HEPG2TOX_HILL_SLOPE 2.29, HEPG2TOX_R_SQUARED 0.975, PBLUC_HILL_SLOPE 12.2, PBLUC_R_SQUARED 0.607, read-out: LUCIFERASE INFECTION ASSAY - IC50) turned out to be 2.81 µM.

Consider `O=C(NCc1ccc(Oc2ccc(F)cc2)cc1)c1ccc(=O)[nH]n1`, for which the concentration for an effect of 90% (IC90) was more than 10 µM. For the setting “HEPG2TOX_HILL_SLOPE 2.29, HEPG2TOX_R_SQUARED 0.724, PBLUC_HILL_SLOPE 1.94, PBLUC_R_SQUARED 0.162, read-out: LUCIFERASE INFECTION ASSAY - IC50”, the 50% inhibitory concentration (IC50) stood at 5.95 µM.

On to `O=C(c1ccc(S(=O)(=O)C(F)(F)F)cc1)N1CCN(Cc2csc(-c3ccccc3)n2)CC1`, for which the 90% effect concentration (IC90) amounted to 4.21 µM. Moreover, the half-maximal inhibitory concentration (IC50) (HEPG2TOX_HILL_SLOPE 2.26, HEPG2TOX_R_SQUARED 0.817, PBLUC_HILL_SLOPE 12.1, PBLUC_R_SQUARED 0.456, read-out: LUCIFERASE INFECTION ASSAY - IC50) worked out at 3.51 µM.

Turning to `Cc1cccc(N2CCN(C(=O)c3cccc(OCc4c(C)noc4C)c3)CC2)c1C`, the 90% effect concentration (IC90) is more than 10 µM. Where the note is “HEPG2TOX_HILL_SLOPE 2.27, HEPG2TOX_R_SQUARED 0.832, PBLUC_HILL_SLOPE 9.75, PBLUC_R_SQUARED 0.237, read-out: LUCIFERASE INFECTION ASSAY - IC50”, the 50% inhibitory concentration (IC50) stood at 9.51 µM.

Consider `CC(=O)Nc1cccc(-c2cn3c(-c4ccc5c(ccn5C)c4)cnc3cn2)c1`, for which the concentration for an effect of 90% (IC90) came out at 7.79 µM. Also, the concentration for half-maximal inhibition (IC50) (HEPG2TOX_HILL_SLOPE 2.25, HEPG2TOX_R_SQUARED 0.952, PBLUC_HILL_SLOPE 1.38, PBLUC_R_SQUARED 0.642, read-out: LUCIFERASE INFECTION ASSAY - IC50) turned out to be 1.59 µM.

Take `C/C(=N\NC(=O)c1ccc(OCC(=O)N2C(C)CCCC2C)cc1)c1ccc2ccccc2c1O` (stereo not drawn): the IC90 was found to be 3.9 µM. Also, for the setting “HEPG2TOX_HILL_SLOPE 2.27, HEPG2TOX_R_SQUARED 0.93, PBLUC_HILL_SLOPE 2.78, PBLUC_R_SQUARED 0.436, read-out: LUCIFERASE INFECTION ASSAY - IC50”, the IC50 amounted to 1.77 µM.

Turning to `Clc1ccc2c(c1)-c1nc(-c3ccncc3)ncc1CS2`, the 90% effect concentration (IC90) turned out to be 5.94 µM. The IC50 (HEPG2TOX_HILL_SLOPE 2.28, HEPG2TOX_R_SQUARED 0.969, PBLUC_HILL_SLOPE 3.97, PBLUC_R_SQUARED 0.207, read-out: LUCIFERASE INFECTION ASSAY - IC50) is 3.41 µM.

For the molecule `COc1cccc(C(=O)Nc2nc3ccccn3c2C(=O)NC2CCCCC2)c1`, the concentration for an effect of 90% (IC90) was 2.95 µM. In addition, the 50% inhibitory concentration (IC50) (HEPG2TOX_HILL_SLOPE 2.26, HEPG2TOX_R_SQUARED 0.97, PBLUC_HILL_SLOPE 3.61, PBLUC_R_SQUARED 0.707, read-out: LUCIFERASE INFECTION ASSAY - IC50) was determined as 1.61 µM.

Turning to `C(=C1\CCc2cnc3scc[n+]3c21)/c1ccccc1`, the IC90 is more than 10 µM. Where the note is “HEPG2TOX_HILL_SLOPE 2.32, HEPG2TOX_R_SQUARED 0.938, read-out: LUCIFERASE INFECTION ASSAY - IC50”, the 50% inhibitory concentration (IC50) was more than 10 µM.

In the case of `O=C(Nc1ccc(OCc2ccccc2)cc1)C1=COC2=NC(=O)N(Cc3cccc(Cl)c3)CCN12`, the concentration for an effect of 90% (IC90) amounted to 4.47 µM. Also, where the note is “HEPG2TOX_HILL_SLOPE 2.27, HEPG2TOX_R_SQUARED 0.429, PBLUC_HILL_SLOPE 8.12, PBLUC_R_SQUARED 0.376, read-out: LUCIFERASE INFECTION ASSAY - IC50”, the 50% inhibitory concentration (IC50) worked out at 3.41 µM.

`O=C1C=C/C(=N\Nc2ccc3ncsc3c2)c2cccnc21`: the IC90 is more than 10 µM. Also, where the note is “HEPG2TOX_HILL_SLOPE 2.28, HEPG2TOX_R_SQUARED 0.978, PBLUC_HILL_SLOPE 13.8, PBLUC_R_SQUARED 0.454, read-out: LUCIFERASE INFECTION ASSAY - IC50”, the IC50 worked out at 8.95 µM.

As to `Cc1nc(NC(=O)c2cnn(C)c2)sc1Cc1ccccc1Cl`, the IC90 turned out to be 3.3 µM. Also, the IC50 (HEPG2TOX_HILL_SLOPE 2.29, HEPG2TOX_R_SQUARED 0.901, PBLUC_HILL_SLOPE 11.8, PBLUC_R_SQUARED 0.668, read-out: LUCIFERASE INFECTION ASSAY - IC50) is 2.74 µM.

Take `COCOc1ccc(-c2cc(-c3cccc4cccnc34)cnc2N)cc1`: the concentration for an effect of 90% (IC90) was more than 9.23 µM. Moreover, the half-maximal inhibitory concentration (IC50) (HEPG2TOX_HILL_SLOPE 2.28, HEPG2TOX_R_SQUARED 0.55, PBLUC_HILL_SLOPE 1.41, PBLUC_R_SQUARED 0.714, read-out: LUCIFERASE INFECTION ASSAY - IC50) turned out to be 3.26 µM.

For `Nc1ncc(-c2cccc(OC(F)(F)F)c2)cc1-c1cncc2ccccc12`, the concentration for an effect of 90% (IC90) worked out at 3.99 µM. Moreover, the IC50 (HEPG2TOX_HILL_SLOPE 2.29, HEPG2TOX_R_SQUARED 0.959, PBLUC_HILL_SLOPE 12.1, PBLUC_R_SQUARED 0.284, read-out: LUCIFERASE INFECTION ASSAY - IC50) was 3.33 µM.

As to `O=C(Nc1ccc(Oc2ccc3ccccc3c2)cc1)c1ccccc1`, the concentration for an effect of 90% (IC90) is 1.16 µM. Besides, the IC50 (HEPG2TOX_HILL_SLOPE 2.3, HEPG2TOX_R_SQUARED 0.782, PBLUC_HILL_SLOPE 2.18, PBLUC_R_SQUARED 0.822, read-out: LUCIFERASE INFECTION ASSAY - IC50) turned out to be 0.424 µM.

Consider `C=CCN(C(=O)c1cccc(S(=O)(=O)N2CCCC2)c1)c1nc2c(s1)CCCC2`, for which the IC90 was 8.77 µM. In addition, for the setting “HEPG2TOX_HILL_SLOPE 2.26, HEPG2TOX_R_SQUARED 0.795, PBLUC_HILL_SLOPE 11.6, 3.98, PBLUC_R_SQUARED 0.244, 0.586, read-out: LUCIFERASE INFECTION ASSAY - IC50”, the IC50 came to 7.23 µM.

Turning to `COCCNC(=S)NNc1ccc2ccccc2c1`, the IC90 was 1.19 µM. Besides, for the setting “HEPG2TOX_HILL_SLOPE 2.26, HEPG2TOX_R_SQUARED 0.95, PBLUC_HILL_SLOPE 42.9, PBLUC_R_SQUARED 0.446, read-out: LUCIFERASE INFECTION ASSAY - IC50”, the IC50 was found to be 1.13 µM.

On to `CCOCCSc1nc(-c2ccccc2)c(-c2ccccc2)[nH]1`, for which the 90% effect concentration (IC90) is more than 10 µM. Moreover, for the setting “HEPG2TOX_HILL_SLOPE 2.32, HEPG2TOX_R_SQUARED 0.811, read-out: LUCIFERASE INFECTION ASSAY - IC50”, the half-maximal inhibitory concentration (IC50) is more than 10 µM.

In the case of `CCC(C)NC(=O)c1c(NC(=O)c2cccc(C#N)c2)nc2ccc(C)cn12` (stereo not drawn), the concentration for an effect of 90% (IC90) amounted to 3.79 µM. Besides, the IC50 (HEPG2TOX_HILL_SLOPE 2.26, HEPG2TOX_R_SQUARED 0.914, PBLUC_HILL_SLOPE 14.3, PBLUC_R_SQUARED 0.23, read-out: LUCIFERASE INFECTION ASSAY - IC50) came to 3.25 µM.

For `OC1CCN(c2ccnc3c(-c4ccc(Oc5ccccc5)cc4)cnn23)CC1`, the 90% effect concentration (IC90) was determined as 7.21 µM. Besides, the half-inhibitory concentration (IC50) (HEPG2TOX_HILL_SLOPE 2.26, HEPG2TOX_R_SQUARED 0.638, PBLUC_HILL_SLOPE 2.48, PBLUC_R_SQUARED 0.699, read-out: LUCIFERASE INFECTION ASSAY - IC50) stood at 2.98 µM.

With `O=C(Nc1ccc(Cl)c(Cl)c1)n1ccc(C(F)(F)F)n1`, the IC90 is more than 10.2 µM. The IC50 (HEPG2TOX_HILL_SLOPE 2.26, HEPG2TOX_R_SQUARED 0.289, PBLUC_HILL_SLOPE 2.6, PBLUC_R_SQUARED 0.537, read-out: LUCIFERASE INFECTION ASSAY - IC50) was 5.64 µM.

On to `CCOc1ccccc1NC(=O)C(NCc1ccc(OC(F)F)cc1)c1ccccc1` (stereo not drawn), for which the 90% effect concentration (IC90) is 4.47 µM. Also, the concentration for half-maximal inhibition (IC50) (HEPG2TOX_HILL_SLOPE 2.27, HEPG2TOX_R_SQUARED 0.924, PBLUC_HILL_SLOPE 9.94, PBLUC_R_SQUARED 0.658, read-out: LUCIFERASE INFECTION ASSAY - IC50) was found to be 3.59 µM.
